# Measured values: ChEMBL document CHEMBL4665685, “Neuroprotective Effects of Triterpenoids from Camellia japonica against Amyloid β-Induced Neuronal Damage” (J Nat Prod, 2020)
# Activity calls are given as the source filed them. No cut-off for these calls is given here.
# What was measured:
# [1] = test system: HT-22; test: Neuroprotective activity against amyloid beta (1 to 42 residues)-induced cell death in mouse HT22 cells assessed as increase in cell viability at 20 uM after 24 hrs by MTT assay (reference value: 51.2%); assay type: functional
# [2] = test system: HT-22; test: Cytotoxicity against mouse HT-22 cells assessed as reduction in cell viability at 40 uM after 24 hrs by MTT assay; assay type: cell-based; details: ht-22, 24 h
# [3] = test system: BV-2; test: Cytotoxicity against mouse BV2 cells assessed as reduction in cell viability at 40 uM after 18 hrs by MTT assay; assay type: cell-based; details: bv-2, 18 h
# [4] = test system: HT-22; test: Neuroprotective activity against amyloid beta (1 to 42 residues)-induced cell death in mouse HT22 cells assessed as increase in cell viability at 1 uM after 24 hrs by MTT assay (reference value: 51.2%); assay type: functional
# [5] = test system: HT-22; test: Neuroprotective activity against glutamate-induced cell death in mouse HT22 cells assessed as increase in cell viability at 40 uM preincubated for 6 hrs followed by glutamate-challenge and measured after 16 hrs by MTT assay relative to control; assay type: functional
# [6] = target: Beta-secretase 1 (Homo sapiens) (UniProt P56817); test: Inhibition of BACE1 (unknown origin) at 10 uM measured after 60 mins by FRET assay
# Beta-secretase 1 (Homo sapiens), sequence (P56817 whole entry, the tested form may be a part): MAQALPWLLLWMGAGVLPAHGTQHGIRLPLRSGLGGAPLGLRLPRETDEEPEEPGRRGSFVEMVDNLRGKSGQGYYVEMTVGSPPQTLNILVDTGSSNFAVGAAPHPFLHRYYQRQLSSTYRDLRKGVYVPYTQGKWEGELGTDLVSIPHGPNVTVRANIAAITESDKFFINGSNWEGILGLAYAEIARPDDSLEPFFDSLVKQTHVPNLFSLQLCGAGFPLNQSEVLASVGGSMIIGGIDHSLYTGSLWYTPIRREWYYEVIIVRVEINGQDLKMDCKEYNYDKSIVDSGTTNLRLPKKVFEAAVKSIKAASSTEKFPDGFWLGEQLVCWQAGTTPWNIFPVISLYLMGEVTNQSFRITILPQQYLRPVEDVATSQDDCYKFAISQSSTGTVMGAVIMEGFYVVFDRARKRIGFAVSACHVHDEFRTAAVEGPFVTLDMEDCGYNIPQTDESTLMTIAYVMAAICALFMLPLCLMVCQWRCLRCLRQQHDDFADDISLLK
# [7] = test system: HT-22; test: Neuroprotective activity against amyloid beta (1 to 42) transfected mouse HT22-ARE cells assessed as reversal of increase in antioxidant response element-luciferase activity at 40 uM after 18 hrs by reporter gene assay; assay type: functional, cell-based
# [8] = test system: HT-22; test: Neuroprotective activity against amyloid beta (1 to 42) transfected mouse HT-22 cells assessed as protection against amyloid-induced inflammation at 40 uM after 24 hrs by MTT assay; assay type: functional, cell-based
# [9] = test system: HT-22; test: Neuroprotective activity in mouse HT-22 cells assessed as reduction in amyloid beta (1 to 42 residues)-induced glutamate level at 40 uM after 24 hrs by fluorescence assay (reference value: 3.17); assay type: functional
# [10] = test system: BV-2; test: Anti-neuroinflammatory activity in mouse BV-2 cells assessed as reduction in amyloid beta (1 to 42 residues)-induced nitric oxide at 40 uM after 18 hrs; assay type: functional, cell-based
# [11] = test system: HT-22; test: Neuroprotective activity against in amyloid beta (1 to 42) transfected mouse HT22 cells assessed as reduction in overexpression of the green fluorescent pEGFP-C1 gene at 40 uM after 24 hrs by reporter gene assay; assay type: functional, cell-based
# [12] = target: Beta-secretase 1 (Homo sapiens) (UniProt P56817); test: Inhibition of BACE1 (unknown origin) at 20 uM measured after 60 mins by FRET assay relative to control
# [13] = test system: HT-22; test: Neuroprotective activity against amyloid beta (1 to 42 residues)-induced cell death in mouse HT22 cells assessed as increase in cell viability at 5 uM after 24 hrs by MTT assay (reference value: 51.2%); assay type: functional
smiles,measurement,setting,value
CC1(C)CC[C@]2(C(=O)O)C(=O)C[C@]3(C)C(=CC[C@@H]4[C@@]5(C)CC[C@H](O[C@@H]6O[C@H](C(=O)O)[C@@H](O)[C@H](O)[C@H]6O)C(C)(C)[C@@H]5CC[C@]43C)[C@@H]2C1,Activity,[1],72%
COC(=O)CC[C@@]1(C)C(C(C)(C)O)C[C@H](O)[C@]2(C)[C@@H]1CC=C1[C@@H]3C[C@](C)(CO)CC[C@]3(O)C(=O)C[C@]12C (some centres undefined),Activity,[1],68.9%
COC(=O)CC[C@@]1(C)C(C(C)(C)O)CC[C@]2(C)[C@@H]1CC=C1[C@@H]3C[C@](C)(CO)CC[C@]3(CO)C(=O)C[C@]12C (some centres undefined),Activity,[1],68.9%
CC1(C)CC[C@]2(O)C(=O)C[C@]3(C)C(=CC[C@@H]4[C@@]5(C)CCC(=O)C(C)(C)[C@@H]5CC[C@]43C)[C@@H]2C1,Activity,[1],68.9%
CCCCOC(=O)CC[C@]1(C)[C@H]2CC=C3[C@@H]4C[C@](C)(CO)CC[C@]4(O)C(=O)C[C@@]3(C)[C@]2(C)[C@@H](O)C[C@H]1C(C)(C)O,Activity,[2],Non-Toxic
same,Activity,[3],Non-Toxic
CC1(C)CC[C@]2(O)[C@H](O)C[C@]3(C)C(=CC[C@@H]4[C@@]5(C)CC[C@H](O)C(C)(C)[C@@H]5CC[C@]43C)[C@@H]2C1,Activity,[4],61.9%
CC(C)(O)C1C[C@H](O)[C@]2(C)[C@H](CC=C3[C@@H]4C[C@](C)(CO)CC[C@]4(O)C(=O)C[C@]32C)[C@@]1(C)CCC(=O)O (some centres undefined),Activity,[1],68.9%
CCOC(=O)[C@H]1O[C@@H](O[C@H]2CC[C@]3(C)[C@H]4CC=C5[C@@H]6CC(C)(C)CC[C@]6(O)C(=O)C[C@@]5(C)[C@]4(C)CC[C@H]3C2(C)C)[C@H](O)[C@@H](O)[C@@H]1O,Activity,[4],68.9%
CC1(C)CC[C@]2(CO)C(=O)C[C@]3(C)C(=CC[C@@H]4[C@@]5(C)CC[C@H](O[C@@H]6O[C@H](C(=O)O)[C@@H](O)[C@H](O)[C@H]6O)C(C)(C)[C@@H]5CC[C@]43C)[C@@H]2C1,Activity,[1],55.5%
CO[C@@H]1C=C2[C@@H]3CC(C)(C)CC[C@]3(O)C(=O)C[C@@]2(C)[C@]2(C)CC[C@H]3C(C)(C)C(=O)C=C[C@]3(C)[C@@H]12,Activity,[5],73.8%
same,inhibition,[6],Active
same,Activity,[7],Active
same,Activity,[2],Non-Toxic
same,Activity,[3],Non-Toxic
same,Activity,[8],Active
same,fold change (FC),[9],1.8
same,Activity,[10],Active
same,Activity,[11],Active
same,inhibition,[12],61.3%
COC(=O)CC[C@@]1(C)C(C(C)(C)O)CC[C@]2(C)[C@@H]1CC=C1[C@@H]3C[C@](C)(CO)CC[C@]3(O)C(=O)C[C@]12C (some centres undefined),Activity,[1],68.9%
CC1(C)CC[C@]2(O)C(=O)C[C@]3(C)C(=CC[C@@H]4[C@@]5(C)CC[C@H](O)C(C)(C)[C@@H]5CC[C@]43C)[C@@H]2C1,Activity,[4],68.9%
CC(=O)O[C@H]1CC[C@]2(C)[C@H]3C=CC4=C5CC(C)(C)CC[C@]5(C(=O)O)CC[C@@]4(C)[C@]3(C)CC[C@H]2C1(C)C,Activity,[4],68.9%
CC1(C)CC[C@]2(O)C(=O)C[C@]3(C)C(=CC[C@@H]4[C@@]5(C)CC[C@H](O[C@@H]6O[C@H](C(=O)O)[C@@H](O)[C@H](O)[C@H]6O)C(C)(C)[C@@H]5CC[C@]43C)[C@@H]2C1,Activity,[13],68.9%
CC1(C)CC[C@]2(CO)[C@H](O)C[C@]3(C)C(=CC[C@@H]4[C@@]5(C)CC[C@H](O)C(C)(C)[C@@H]5CC[C@]43C)[C@@H]2C1 [PRIMULAGENIN],Activity,[4],60.5%
CC(C)(O)C1CC[C@]2(C)[C@H](CC=C3[C@@H]4C[C@](C)(CO)CC[C@]4(O)C(=O)C[C@]32C)[C@@]1(C)CCC(=O)O (some centres undefined),Activity,[1],68.9%
C=C(C)[C@@H]1C[C@H](O)[C@]2(C)[C@H](CC=C3[C@@H]4C[C@](C)(CO)CC[C@]4(O)C(=O)C[C@]32C)[C@@]1(C)CCC(=O)OC,Activity,[2],Non-Toxic
same,Activity,[3],Non-Toxic
CC1(CO)CC[C@]2(O)C(=O)C[C@]3(C)C(=CC[C@@H]4[C@@]5(C)CCC(=O)C(C)(C)[C@@H]5CC[C@]43C)[C@@H]2C1 (some centres undefined),Activity,[5],81.2%
same,inhibition,[6],Active
same,Activity,[7],Active
same,Activity,[2],Non-Toxic
same,Activity,[3],Non-Toxic
same,Activity,[8],Active
same,fold change (FC),[9],1.81
same,Activity,[10],Active
same,Activity,[11],Active
same,inhibition,[12],60.6%
CC(=O)O[C@H]1CC[C@]2(C)[C@H]3CC=C4[C@@H]5CC(C)(C)CC[C@]5(C(=O)O)CC[C@@]4(C)[C@]3(C)CC[C@H]2C1(C)C [ACETYL OLEANOLIC ACID],Activity,[4],56.3%
CC1(C)CC[C@]2(O)C(=O)C[C@]3(C)C(=C[C@@H](O)[C@@H]4[C@@]5(C)[C@H](O)CC(=O)C(C)(C)[C@@H]5CC[C@]43C)[C@@H]2C1,Activity,[5],78.1%
same,inhibition,[6],Active
same,Activity,[7],Active
same,Activity,[2],Non-Toxic
same,Activity,[3],Non-Toxic
same,Activity,[8],Active
same,fold change (FC),[9],1.42
same,Activity,[10],Active
same,Activity,[11],Active
same,inhibition,[12],51.1%
CC1(C)CC[C@]2(O)C(=O)C[C@]3(C)C(=CC[C@@H]4[C@@]5(C)CC[C@H](O[C@@H]6O[C@H](C(=O)O)[C@@H](O)[C@H](O[C@@H]7O[C@H](CO)[C@@H](O)[C@H](O)[C@H]7O[C@@H]7O[C@H](CO)[C@@H](O)[C@H](O)[C@H]7O)[C@H]6O[C@H]6O[C@@H](CO)[C@H](O)[C@@H](O)[C@@H]6O)C(C)(C)[C@@H]5CC[C@]43C)[C@@H]2C1,Activity,[13],68.9%
CC1(C)CCC2C(=O)C[C@]3(C)C(=C2C1)C=C[C@@H]1[C@@]2(C)CC[C@H](O)C(C)(C)C2CC[C@]13C (some centres undefined),Activity,[13],68.9%
CC1(C)CC[C@]2(O)C(=O)C[C@]3(C)C(=CC[C@@H]4[C@@]5(C)CC[C@H](O[C@@H]6O[C@H](CO)[C@@H](O)[C@H](O[C@@H]7O[C@H](CO)[C@@H](O)[C@H](O)[C@H]7O[C@@H]7O[C@H](CO)[C@@H](O)[C@H](O)[C@H]7O)[C@H]6O[C@H]6O[C@@H](CO)[C@H](O)[C@@H](O)[C@@H]6O)C(C)(C)[C@@H]5CC[C@]43C)[C@@H]2C1,Activity,[13],68.9%
O=c1c(O)c(-c2ccc(O)c(O)c2)oc2cc(O)cc(O)c12,inhibition,[6],Active
CC1(C)CC[C@]2(O)C(=O)C[C@]3(C)C(=CC[C@@H]4[C@@]5(C)CC[C@H](O[C@@H]6O[C@H](C(=O)O)[C@@H](O)[C@H](O[C@@H]7O[C@H](CO)[C@@H](O)[C@H](O)[C@H]7O[C@@H]7O[C@H](CO)[C@@H](O)[C@H](O)[C@H]7O)[C@H]6O)C(C)(C)[C@@H]5CC[C@]43C)[C@@H]2C1,Activity,[1],68.9%
CC1(C)CC[C@]2(C(=O)O)C(=O)C[C@]3(C)C(=CC[C@@H]4[C@@]5(C)CC[C@H](O[C@@H]6O[C@H](C(=O)O)[C@@H](O)[C@H](O[C@@H]7O[C@H](CO)[C@@H](O)[C@H](O)[C@H]7O[C@@H]7O[C@H](CO)[C@@H](O)[C@H](O)[C@H]7O)[C@H]6O[C@H]6O[C@@H](CO)[C@H](O)[C@@H](O)[C@@H]6O)C(C)(C)[C@@H]5CC[C@]43C)[C@@H]2C1,Activity,[1],61.7%
CC1(C)CC[C@]2(C(=O)O)CC[C@]3(C)C(=CC[C@@H]4[C@@]5(C)CC[C@H](O)C(C)(C)C5CC[C@]43C)[C@@H]2C1 (some centres undefined),Activity,[13],58.6%
CC(=O)O[C@H]1CC[C@@]2(C)C(CC[C@]3(C)[C@@H]2C(=O)C=C2[C@@H]4CC(C)(C)CC[C@]4(C)CC[C@]23C)C1(C)C (some centres undefined),Activity,[13],68.9%
COC(=O)CC[C@@]1(C)C(C(C)(C)O)C[C@H](O)[C@]2(C)[C@@H]1CC=C1[C@@H]3CC(C)(C)CC[C@]3(O)C(=O)C[C@]12C (some centres undefined),Activity,[1],68.9%
C=C(C)C1CC[C@]2(C)[C@H](CC=C3[C@@H]4C[C@](C)(CO)CC[C@]4(O)C(=O)C[C@]32C)[C@@]1(C)CCC(=O)O (some centres undefined),Activity,[1],68.9%
